Laboratory results as given in US4761422A, “(2-amino-4-aryl-thiazole-5-yl)ethanols and their derivatives having diuretic activity and methods for preparing the same” (Lusofarmaco Istituto Lusofarmaco d'Italia SpA, priority 1986, dated 1988).

Columns and labels:
[1] = Acute toxicity in rat (DL50); conditions: in vivo, ip
[2] = Diuretic activity in rat (DA200, dosage causing doubling of the urinary volume), method of Fregnan et al.; format: in vivo; conditions: po, os
Description: The diuretic activity has been determined according to the method by G. B. Fregnan et al., Gazzetta Medica Italiana 128, 384 (1969).
In the Table given hereinbelow the pharmacological data of some of the compounds according to the invention in comparison with thienyl acid are set forth.
*Dosage causing doubling of the urinary volume

SMILES | LD50 [1] [mg/kg] | ED (doubling of urinary volume) [2] [mg/kg]
NC(=O)OCCc1sc(N)nc1-c1ccc(Cl)cc1 [LR 890, 2-[2-amino-4-(p-chlorophenyl)thiazole-5-yl]ethanol carbamate] | > 2000 | 3
CCN(CC)c1nc(-c2ccc(Cl)cc2)c(CCOC(N)=O)s1 [LR 525, 2-[2-diethylamino-4-(p-chlorophenyl)thiazole-5-yl]ethanol carbamate] | > 2000 | 3
NC(=O)NC(=O)OCCc1sc(N)nc1-c1ccc(Cl)cc1 [LR 856] | > 1000 | 5
CCN(CC)c1nc(-c2ccc(Cl)cc2)c(CCO)s1 [LR 440, 2-[2-diethylamino-4-(p-chlorophenyl)thiazole-5-yl]ethanol] | > 1000 | 100
O=C(O)COc1ccc(C(=O)c2cccs2)c(Cl)c1Cl [Thienyl acid, reference compound] | 350 | 100
CNc1nc(-c2ccc(Cl)cc2)c(CCOC(N)=O)s1 [LR 892, 2-[2-methylamino-4-(p-chlorophenyl)thiazole-5-yl]ethanol carbamate] | > 1000 | 10
Nc1nc(-c2ccc(Cl)cc2)c(CCO)s1 [LR 409, 2-[2-amino-4-(p-chlorophenyl)thiazole-5-yl]ethanol] | 280 | 30
CNc1nc(-c2ccc(Cl)cc2)c(CCO)s1 [LR 861, 2-[2-methylamino-4-(p-chlorophenyl)thiazole-5-yl]ethanol] | 750 | 100
